Series [1] has as its system cells from the bone marrow of C57BL/6 mice. Nature of the series: formation of hematopoietic progenitors in vitro (soft agar colony cultures). In kind it is cell-based, mouse. The method, then:
Cells (25,000) from the bone marrow of C57BL/6 mice were cultured in soft agar with G-CSF, IL-3 and EPO for 7 r d, stained and counted. Saline or ABT-737 was added on days 1, 3 and 5. […] G, granulocyte colony; GM, granulocyte/macrophage colony; M, macrophage colony; EO, eosinophil colony; Meg, megakaryocyte colony. Total colony counts are the means of two cultures; megakaryocyte colony counts represent the means±SD of four indepdendent cultures.
The hematocrit, platelet and white cell count, and differential were determined by using either manual or automated (Advia 120) counting techniques. In most experiments, with the exception of data shown in FIGS. 1A and 6E, the data was collected from male mice. Clonal cultures of 2.5×10^4 adult bone marrow cells or 5×10^4 spleen cells in 1 mL of 0.3% agar in DMEM supplemented with newborn calf serum (20%) were stimulated with a mixture of 100 ng/mL murine stem cell factor, 10 ng/mL murine IL-3, 4 units/mL human EPO and incubated for 7 days at 37° C. in a fully humidified atmosphere of 10% CO2 in air. Agar cultures were fixed, sequentially stained for acetylcholinesterase, Luxol fast blue and hematoxylin; the cellular composition of each colony determined at ×100-400 magnification. Megakaryocyte counts were performed by manual counting from sections of sternum and spleen after staining with hematoxylin/eosin. A minimum of 10 high-power fields (×200) were scored.

The next series relates to serum TPO levels. Nature of the series: Thrombopoietin analysis (serum TPO ELISA) in ABT-737 treated mice. The class given is in vivo, mouse. The note with it: after ABT-737. How it is done: Animals were bled 2-24 h afterwards and platelet counts determined. […] (B) Platelet recovery after a single dose of ABT-737. Platelet counts (blue symbols; left axis) were determined 2-96 h after a single dose of ABT-737 (red arrow). […] Orange symbols represent serum TPO levels (right axis). (C) Cyclical acute thrombocytopaenia triggered by ABT-737. Platelet counts were determined before and 8 h after a single dose of ABT-737 (red arrows) given at weekly intervals. […] During recovery, baseline counts drifted upwards. (D) ABT-737 acts selectively on aged platelets. […] (E) Synchronizing platelets. […] During recovery, the newly synthesized younger platelets are larger as indicated by the increased mean platelet volume (blue symbols; right axis). (F) Young platelets are resistant to ABT-737. Wild type C57BL/6 mice were treated with APS, and then injected with ABT-737 (red arrows) either 2 or 7 days afterwards. Absolute platelet counts and the % of reticulated platelets were measured. […]
Blood was collected from the retroorbital sinus using a non-heparinized capillary tube into an eppendorf tube and incubated at room temperature for 2 h. […] Thrombopoietin levels were measured by enzyme-linked immunosorbent assay (ELISA) using the Quantikine Mouse TPO Immunoassay kit (R&D Systems) according to the manufacturer's instructions.

The conditions of series [2]: mouse, in vivo; cited from earlier work.
The mark [3] stands for this setting: ABT-737 1 μM added on days 1, 3 and 5, 25,000 bone marrow cells, 7 d, mean of two cultures.
Where [4] appears, read: progenitor cell cultures in vitro.

“Also recorded” adds a separate entry of the source.

For `CN(C)CC[C@H](CSc1ccccc1)Nc1ccc(S(=O)(=O)NC(=O)c2ccc(N3CCN(Cc4ccccc4-c4ccc(Cl)cc4)CC3)cc2)cc1[N+](=O)[O-]` [ABT-737], in series [1] (setting [3]), the Blast colonies was found to be 16; the “Eo, eosinophil colony” value is recorded as 1; the “G, granulocyte colony” value is reported as 14; the “GM, granulocyte/macrophage colony” value stood at 6. Besides, in series [1] (setting [3]), the “M, macrophage colony” value is 14. For the same molecule, the “Meg, megakaryocyte colony” value in series [1] (ABT-737 1 μM added on days 1, 3 and 5, 25,000 bone marrow cells, 7 d, means±SD of four independent cultures) turned out to be 14 ± 6. Besides, in series [1] (setting [4]), the “effect on formation of other colonies” value is “unaffected” and the “effect on megakaryocyte colony formation” value is “no effect; also recorded: minor effect”. In addition, the “TPO levels in ABT-737 treated mice” value in the series on serum TPO levels is given as “sustained production; also recorded: normal, or probably even elevated”. For the same molecule, in series [2], the tolerability in mice entry is recorded as “well-tolerated”.

These data come from patent publication US20100292200A1, “Methods for Modulating Apoptosis in Platelets” (The Walter and Eliza Hall Institute of Medical Research, priority 2006, published 2010).
